Measurements from ChEMBL document CHEMBL1201862, “PubChem BioAssay data set” (2004).
Active and inactive are the calls of the source.

How the values were obtained:
[1] = viability of PTEN-deleted HCT116 cells – cell-based, HCT116 PTEN knockout, dose response (AID 1047); type: functional;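 note: HCT116 colon tumor cells with PTEN knocked out; cells exposed to compound for 60 hours before readout; potency for loss of cell viability measured by luminescence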
Streptococcus = assay: GAS UMAA2166 growth inhibition – luminescence, BacTiterGlo, counter-screen for streptokinase expression inhibitor project, dose response (AID 1915); type: functional, organism-based;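 note: potency for reduction of bacterial viability or growth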
[2] = target: Glucose-6-phosphate 1-dehydrogenase (Homo sapiens, UniProt P11413); assay: inhibition of Homo sapiens G6PD, dose series – biochemical, fluorescence, selectivity assay for P. falciparum G6PD inhibitor project, dose response (AID 504792); type: functional
Sequence of Glucose-6-phosphate 1-dehydrogenase (P11413 whole entry): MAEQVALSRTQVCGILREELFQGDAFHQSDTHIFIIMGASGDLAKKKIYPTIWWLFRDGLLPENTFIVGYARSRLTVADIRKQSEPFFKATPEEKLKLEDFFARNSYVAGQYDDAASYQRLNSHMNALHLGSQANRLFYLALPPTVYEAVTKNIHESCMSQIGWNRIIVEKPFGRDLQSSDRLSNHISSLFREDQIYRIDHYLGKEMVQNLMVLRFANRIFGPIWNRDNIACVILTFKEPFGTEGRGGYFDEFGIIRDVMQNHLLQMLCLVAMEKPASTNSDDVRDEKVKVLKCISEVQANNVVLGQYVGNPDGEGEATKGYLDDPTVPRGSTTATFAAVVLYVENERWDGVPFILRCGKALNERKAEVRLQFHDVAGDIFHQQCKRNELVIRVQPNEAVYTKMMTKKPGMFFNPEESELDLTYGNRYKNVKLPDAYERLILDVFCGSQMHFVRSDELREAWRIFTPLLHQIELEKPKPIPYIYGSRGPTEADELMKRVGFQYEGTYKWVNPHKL

[3] = target: T1, Apoptotic protease-activating factor 1 (Homo sapiens, UniProt O14727); type: functional
T1 sequence (O14727 whole entry): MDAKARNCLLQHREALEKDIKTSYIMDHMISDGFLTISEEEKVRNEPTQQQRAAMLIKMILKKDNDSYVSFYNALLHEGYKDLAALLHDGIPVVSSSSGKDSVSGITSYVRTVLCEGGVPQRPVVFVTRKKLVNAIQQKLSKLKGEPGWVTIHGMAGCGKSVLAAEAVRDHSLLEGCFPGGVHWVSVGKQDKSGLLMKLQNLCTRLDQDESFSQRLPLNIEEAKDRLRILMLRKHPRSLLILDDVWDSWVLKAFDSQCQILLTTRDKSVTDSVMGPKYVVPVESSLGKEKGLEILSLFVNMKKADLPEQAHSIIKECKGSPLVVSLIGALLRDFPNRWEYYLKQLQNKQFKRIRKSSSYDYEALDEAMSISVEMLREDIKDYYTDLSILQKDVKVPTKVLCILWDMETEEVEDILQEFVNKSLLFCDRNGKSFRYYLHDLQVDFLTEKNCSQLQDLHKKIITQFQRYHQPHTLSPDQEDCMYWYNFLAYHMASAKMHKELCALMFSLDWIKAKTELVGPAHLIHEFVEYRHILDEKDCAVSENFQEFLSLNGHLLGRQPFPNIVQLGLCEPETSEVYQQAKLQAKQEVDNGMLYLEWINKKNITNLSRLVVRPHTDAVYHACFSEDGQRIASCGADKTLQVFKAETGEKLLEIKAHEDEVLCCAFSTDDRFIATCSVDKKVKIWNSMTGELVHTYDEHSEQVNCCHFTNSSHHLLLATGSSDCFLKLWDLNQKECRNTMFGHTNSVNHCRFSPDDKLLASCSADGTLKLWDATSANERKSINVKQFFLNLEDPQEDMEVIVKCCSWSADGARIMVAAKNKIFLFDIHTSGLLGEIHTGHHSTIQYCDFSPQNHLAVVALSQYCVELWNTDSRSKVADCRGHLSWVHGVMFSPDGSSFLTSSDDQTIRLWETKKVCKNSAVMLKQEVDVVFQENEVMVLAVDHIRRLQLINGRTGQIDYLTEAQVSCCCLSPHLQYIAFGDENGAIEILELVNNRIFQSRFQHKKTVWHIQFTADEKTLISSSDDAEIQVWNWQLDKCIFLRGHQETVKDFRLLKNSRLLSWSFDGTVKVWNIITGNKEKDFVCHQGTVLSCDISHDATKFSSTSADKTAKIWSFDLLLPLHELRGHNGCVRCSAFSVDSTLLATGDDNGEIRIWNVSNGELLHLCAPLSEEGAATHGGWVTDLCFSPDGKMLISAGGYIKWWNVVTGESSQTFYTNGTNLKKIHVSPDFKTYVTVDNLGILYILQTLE

[4] = decrease of insulin promoter-GFP reporter – imaging, high-content screening, mouse beta cells (AID 1628); type: functional; settings: MIN6
Estrogen receptor beta = Estrogen receptor beta (Homo sapiens, UniProt Q92731);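 note: recombinant ER-beta bound to coactivator SRC1 peptide in presence of estradiol agonist; inhibitors block coactivator peptide binding and lower the FRET signal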
Sequence of Estrogen receptor beta (Q92731 whole entry): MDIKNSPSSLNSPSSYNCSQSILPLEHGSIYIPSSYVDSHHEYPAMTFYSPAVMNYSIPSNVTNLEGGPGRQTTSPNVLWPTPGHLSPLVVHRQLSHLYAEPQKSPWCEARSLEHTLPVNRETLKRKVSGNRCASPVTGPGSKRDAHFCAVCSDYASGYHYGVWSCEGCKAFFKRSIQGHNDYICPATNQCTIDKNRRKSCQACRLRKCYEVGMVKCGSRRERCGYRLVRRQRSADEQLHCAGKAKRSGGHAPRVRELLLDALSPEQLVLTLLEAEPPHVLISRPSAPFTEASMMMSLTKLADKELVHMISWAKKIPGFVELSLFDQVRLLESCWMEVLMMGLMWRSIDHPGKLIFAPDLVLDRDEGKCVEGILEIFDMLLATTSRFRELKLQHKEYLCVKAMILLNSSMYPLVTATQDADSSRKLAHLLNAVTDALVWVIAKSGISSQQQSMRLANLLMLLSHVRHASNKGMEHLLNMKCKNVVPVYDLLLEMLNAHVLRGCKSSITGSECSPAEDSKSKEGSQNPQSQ

[5] = MIN6 cell viability loss – mouse insulinoma, cytotoxicity control, dose response (AID 2122); type: functional;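 note: confirmatory high-throughput counterscreen run to flag cytotoxic compounds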
Streptokinase A = target: T2, Streptokinase A (Streptococcus pyogenes serotype M1, UniProt P10520); assay: viability-normalized secreted streptokinase activity reduction – plasminogen activation absorbance, OD405, dose response (AID 1914); type: functional, Streptococcus pyogenes M1 GAS;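 note: secreted streptokinase activity via plasminogen activation per viability signal from cell pellet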
T2 sequence (P10520 whole entry): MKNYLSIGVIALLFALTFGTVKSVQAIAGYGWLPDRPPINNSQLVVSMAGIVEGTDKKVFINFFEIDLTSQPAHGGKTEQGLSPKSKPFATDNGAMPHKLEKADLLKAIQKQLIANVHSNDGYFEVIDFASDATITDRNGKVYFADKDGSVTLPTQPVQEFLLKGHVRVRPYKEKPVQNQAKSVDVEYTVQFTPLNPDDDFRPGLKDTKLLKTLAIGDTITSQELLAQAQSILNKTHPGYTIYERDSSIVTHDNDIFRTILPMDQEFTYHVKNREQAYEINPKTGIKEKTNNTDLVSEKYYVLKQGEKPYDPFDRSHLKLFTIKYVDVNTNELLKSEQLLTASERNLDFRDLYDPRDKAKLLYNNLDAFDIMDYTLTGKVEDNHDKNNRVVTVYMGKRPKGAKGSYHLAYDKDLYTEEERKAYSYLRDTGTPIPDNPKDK

Protein RecA = target: T3, Protein RecA (Mycobacterium tuberculosis, UniProt P9WHJ3); assay: Fluorescence Cell-Free Homogeneous Dose Retest to Identify Inhibitors of RecA-Intein Splicing Activity. [Related pubchem assays (depositor defined):AID2097, AID2223, AID489010, AID492950]; type: functional
T3 sequence (P9WHJ3 whole entry): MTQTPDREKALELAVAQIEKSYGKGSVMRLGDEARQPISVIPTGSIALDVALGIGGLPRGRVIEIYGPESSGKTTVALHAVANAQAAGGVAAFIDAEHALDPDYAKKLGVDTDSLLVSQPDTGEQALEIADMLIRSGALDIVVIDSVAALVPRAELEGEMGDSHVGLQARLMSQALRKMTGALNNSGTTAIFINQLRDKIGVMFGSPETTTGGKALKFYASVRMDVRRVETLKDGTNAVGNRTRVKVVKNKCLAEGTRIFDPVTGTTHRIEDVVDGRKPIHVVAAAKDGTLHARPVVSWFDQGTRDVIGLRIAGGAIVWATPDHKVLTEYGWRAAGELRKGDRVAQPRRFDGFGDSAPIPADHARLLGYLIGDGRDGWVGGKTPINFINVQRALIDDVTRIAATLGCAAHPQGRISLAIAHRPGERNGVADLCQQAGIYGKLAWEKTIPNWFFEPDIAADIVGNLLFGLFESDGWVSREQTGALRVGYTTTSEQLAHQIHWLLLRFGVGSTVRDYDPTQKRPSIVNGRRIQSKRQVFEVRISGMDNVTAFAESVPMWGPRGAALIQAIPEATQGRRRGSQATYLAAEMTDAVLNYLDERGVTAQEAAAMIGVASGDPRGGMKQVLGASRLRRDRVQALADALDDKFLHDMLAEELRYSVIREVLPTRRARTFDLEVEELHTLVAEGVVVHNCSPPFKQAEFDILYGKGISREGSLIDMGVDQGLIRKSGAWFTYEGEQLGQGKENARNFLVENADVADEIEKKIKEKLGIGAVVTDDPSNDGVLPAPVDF

[6] = viability of HCT116 lacking mutant beta-catenin – cell-based, human colon tumor, dose response (AID 1045); type: functional;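 note: HCT116 colon tumor cells with beta catenin knocked out; cells exposed to compound for 60 hours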
INS1 = assay: INS-1E survival protection against cytokine death – cell-based, luminescence, retest, dose response (AID 449756); type: functional; settings: Rattus norvegicus;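 note: cell death triggered by IL-1 beta plus TNF-alpha plus IFN-gamma mixture; protective hits raise ATP signal compared with cytokine alone wells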

COc1ccc(C(=O)c2c(C(F)(F)F)oc3c2C(=O)c2ccccc2C3=O)cc1
EC50 [1]: 2.81 µM (active) | EC50 (Streptococcus): 4.92 µM (active) | IC50 [2]: > 80 µM (inactive) | IC50 [3]: 5.29 µM (active) | IC50 [4]: 3.05 µM (active) | IC50 (Estrogen receptor beta): > 50 µM (not active) | IC50 [5]: 2.39 µM (active) | EC50 (Streptokinase A): > 150 µM (not active) | EC50 (Protein RecA): 82.5 nM (active) | EC50 [6]: 2.55 µM (active) | AC50 (INS1): 1.38 µM (active)
